Our source for the survival (thapsigargin 7.5 uM) and survival values is PubChem BioAssay AID1354 (Sanford-Burnham Center for Chemical Genomics, 2008).

This assay deals with Jurkat, thapsigargin-induced death, ATPlite luminescence, 24 h. Kind of assay: ER stress cell death suppression in Jurkat – Jurkat T-cell leukemia, ATP content luminescence (AID 1354). The conditions noted are these: at 25 µM, stronger effect = higher value.
Setting [1] is: measured here: survival at thapsigargin 10 uM.
[2] abbreviates: measured here: survival at thapsigargin 15 uM.

Active and inactive are the calls of the source.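 Rule for the calls: active = survival over 30 points above compound-free thapsigargin wells at any thapsigargin dose; inactive = the rest.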

With `COc1ccc(C2CC(=O)C3=C(C2)Nc2ccccc2NC3c2cccc(Oc3ccccc3)c2)cc1OC` (stereo not drawn), the survival (thapsigargin 7.5 uM) is 51% (inactive). The same compound came in with a survival under setting [1] of 37%. The compound further displayed a survival under setting [2] of 7%.

In the case of `O=C1CC(c2ccccc2)CC2=C1C(c1c(F)cccc1Cl)Nc1ccccc1N2` (stereo not drawn), the survival (thapsigargin 7.5 uM) is 39% (inactive). Under setting [1], this compound displayed a survival of 23%. This compound registered a survival under setting [2] of 1%.

On to `CC1(C)CC(=O)C2=C(C1)Nc1ccccc1NC2c1ccc(-c2ccccc2)cc1` (stereo not drawn), for which the survival (thapsigargin 7.5 uM) was 14% (inactive). The survival under setting [1] was 3%. Under setting [2], this compound registered a survival of 0%.

As to `COc1ccc(C2CC(=O)C3=C(C2)Nc2ccccc2NC3c2cc(C)ccc2C)cc1` (stereo not drawn), the survival (thapsigargin 7.5 uM) is 54% (inactive). Moreover, the survival under setting [1] amounted to 37%. The compound also came in with a survival under setting [2] of 2%.

With `CCCOc1ccc(C2Nc3ccccc3NC3=C2C(=O)CC(c2ccc(OC)c(OC)c2)C3)cc1` (stereo not drawn), the survival (thapsigargin 7.5 uM) is 44% (inactive). Moreover, under setting [1], the survival was determined as 17%. The compound also gave a survival under setting [2] of 1%.

With `CSc1ccc(C2Nc3ccccc3NC3=C2C(=O)CC(c2ccccc2)C3)cc1` (stereo not drawn), the survival (thapsigargin 7.5 uM) was 44% (inactive). Besides, under setting [1], the survival turned out to be 23%. The compound also had a survival under setting [2] of 4%.

For `COc1ccc(C2CC(=O)C3=C(C2)Nc2ccccc2NC3c2cccc(Br)c2)cc1OC` (stereo not drawn), the survival (thapsigargin 7.5 uM) was 34% (inactive). Under setting [1], this compound had a survival of 18%. Besides, the survival under setting [2] amounted to 1%.

Take `COc1ccc(C2CC(=O)C3=C(C2)Nc2ccccc2NC3c2cccc(C(F)(F)F)c2)cc1OC` (stereo not drawn): the survival (thapsigargin 7.5 uM) is 42% (inactive). The same compound came in with a survival under setting [1] of 19%. This compound came in with a survival under setting [2] of 1%.

As for `COc1ccc(C2CC(=O)C3=C(C2)Nc2ccccc2NC3c2ccccc2C(F)(F)F)cc1OC` (stereo not drawn), the survival (thapsigargin 7.5 uM) is 44% (inactive). Under setting [1], this compound yielded a survival of 32%. Under setting [2], the survival is 2%.

Regarding `CCOc1cc(C2Nc3ccccc3NC3=C2C(=O)CC(c2ccc(OC)cc2)C3)cc(Cl)c1O` (stereo not drawn), the survival (thapsigargin 7.5 uM) was 55% (inactive). The survival under setting [1] was 35%. Under setting [2], this compound returned a survival of 2%.

As for `CCOc1cccc(C2Nc3ccccc3NC3=C2C(=O)CC(c2ccc(OC)cc2)C3)c1` (stereo not drawn), the survival (thapsigargin 7.5 uM) is 46% (inactive). Under setting [1], this compound yielded a survival of 32%. The survival under setting [2] is 1%.
